Key:
Type in all cases: physicochemical
[1] = Critical Crystallization Concentration (CCC) of 2,4-D DMA in spray mixtures with glyphosate potassium salt; conditions: 2,4-D DMA + Roundup PowerMax 1:1 AE; no SAC, control sample; 342 ppm hardness water; 24 h ambient
Excerpt: (§1) Alternatively, the relative effectiveness of the surface active compatibilizers described herein at improving the compatibility of the aqueous herbicide solutions described herein can be determined by measuring the Critical Crystallization Concentration (CCC) of the aryloxyalkanoic acid salt, the pyridyloxyalkanoic acid salt, the arylcarboxylic acid salt, or the heteroarylcarboxylic acid salt of an inorganic cation such as, for example, the potassium salt of 2,4-D in a tank mix solution. The CCC of a particular composition can be measured by preparing saturated and over saturated solutions or mixtures of the composition and then measuring the concentration of the particular herbicidal carboxylic acid remaining in solution. […]
(§2) The CCC of 2,4-D compositions were measured using the following method. […] The CCC was determined by measuring the X-intercept of the extrapolated linear function of the crystal weight vs. 2,4-D wt % AE concentration. […] The amounts of 2,4-D and glyphosate salts were added to achieve desired AE concentrations of 2,4-D and glyphosate at 1:1 ratio, and the amount of water was calculated as a balance ingredient to achieve the final mixture volume of 100 ml. • 7. […]

[2] = Critical Crystallization Concentration (CCC) of 2,4-D DMEA in spray mixtures with glyphosate potassium salt; conditions: 2,4-D DMEA + Roundup PowerMax 1:1 AE; no SAC, control sample; 342 ppm water; 24 h ambient
Excerpt: as §1, §2

[3] = On-set pH of crystallization (OSPOC) of aqueous 2,4-D potassium solution, titration with sulfuric acid; conditions: 3% AE w/w 2,4-D K in water; control, no SAC (0.0%); pH lowered with 0.2 N sulfuric acid
Excerpt: Without intending to be bound by theory, the surface active compatibilizers described herein are believed to improve the compatibility of aqueous herbicide solutions comprised of at least one of a water soluble salt of an aryloxyalkanoic acid, a water soluble salt of a pyridyloxyalkanoic acid, a water soluble salt of an arylcarboxylic acid, a water soluble salt of a heteroarylcarboxylic acid and a water soluble salt of glyphosate, a suitable concentration of one or more inorganic cations, and a pH of less than about 6.5 by preventing or inhibiting the crystallization or precipitation of solids. The relative effectiveness of the surface active compatibilizers in preventing the formation of these solids can be estimated by measuring the on-set pH of crystallization (OSPOC) of the solids in a titration analysis procedure. The OSPOC of a particular composition can be measured, for example, by titrating a solution of an aryloxyalkanoic or a pyridyloxyalkanoic acid salt of an inorganic cation such as, for example, the potassium salt of 2,4-D with a strong acid such as, for example, sulphuric acid until solids or crystals begin forming at a particular pH value (the OSPOC). […]

CNC.O=C(O)COc1ccc(Cl)cc1Cl [2,4-D DMA, 2,4-D dimethyl ammonium salt]
2,4-D CCC [1]: 0.89% AE

CN(C)CCO.O=C(O)COc1ccc(Cl)cc1Cl [2,4-D DMEA, 2,4-D dimethylethanol ammonium salt]
2,4-D CCC [2]: 1.04% AE

O=C([O-])COc1ccc(Cl)cc1Cl.[K+] [2,4-D K, 2,4-D potassium]
On-Set pH of Crystallization (OSPOC) [3]: 6.16
